Patent publication US20070027201A1 (Wyeth, priority 2005, published 2007)

Key:
progesterone receptor [1] = biological target: T1, progesterone receptor (Homo sapiens, UniProt P06401); assay: T47D alkaline phosphatase assay for progesterone receptor modulator (antagonist) activity; format: cell-based; parameters: endogenous in cells; host or cells: T47D cells; conditions: T47D cells, antagonist mode in the presence of 1 nM progesterone, 24 hours
T1 sequence (P06401 1-933): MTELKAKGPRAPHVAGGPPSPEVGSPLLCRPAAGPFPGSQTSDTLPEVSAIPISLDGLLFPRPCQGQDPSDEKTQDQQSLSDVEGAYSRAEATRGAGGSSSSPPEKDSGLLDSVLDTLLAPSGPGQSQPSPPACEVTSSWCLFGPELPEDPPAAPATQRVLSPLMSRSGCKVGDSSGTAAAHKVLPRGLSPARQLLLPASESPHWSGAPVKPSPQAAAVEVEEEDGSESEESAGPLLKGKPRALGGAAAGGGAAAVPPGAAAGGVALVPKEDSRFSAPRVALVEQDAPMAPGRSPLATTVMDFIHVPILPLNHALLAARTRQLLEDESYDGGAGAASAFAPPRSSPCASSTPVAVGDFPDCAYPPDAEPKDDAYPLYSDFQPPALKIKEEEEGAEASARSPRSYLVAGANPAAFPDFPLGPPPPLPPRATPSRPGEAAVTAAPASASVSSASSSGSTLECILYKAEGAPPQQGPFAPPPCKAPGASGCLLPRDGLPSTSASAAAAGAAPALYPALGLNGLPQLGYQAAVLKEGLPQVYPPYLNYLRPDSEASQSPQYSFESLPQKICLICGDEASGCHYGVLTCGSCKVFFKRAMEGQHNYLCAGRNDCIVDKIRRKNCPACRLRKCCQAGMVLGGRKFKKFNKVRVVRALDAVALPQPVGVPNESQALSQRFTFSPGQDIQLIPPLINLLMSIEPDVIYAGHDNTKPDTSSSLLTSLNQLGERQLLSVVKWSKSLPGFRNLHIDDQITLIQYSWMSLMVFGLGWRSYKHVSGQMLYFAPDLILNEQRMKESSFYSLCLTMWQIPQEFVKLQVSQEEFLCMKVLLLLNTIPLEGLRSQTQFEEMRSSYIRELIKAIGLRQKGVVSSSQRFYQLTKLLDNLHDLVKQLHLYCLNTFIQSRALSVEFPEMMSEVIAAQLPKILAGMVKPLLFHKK
Description: (§1) An assay was performed to identify compounds having progesterone receptor modulator activity. This assay identifies progestins or antiprogestins by determining a compound's effect on alkaline phosphatase activity in T47D cells.
(§2) Culture medium: DMEM:F12 (1:1) (GIBCO, BRL) supplemented with 5% (v/v) charcoal stripped fetal bovine serum (not heat-inactivated), 100 U/mL penicillin, 100 μg/mL streptomycin, and 2 mM the GlutaMax® reagent (GIBCO, BRL).
(§3) Alkaline phosphatase assay buffer: • I. 0.1M Tris-HCl, pH 9.8, containing 0.2% the Triton™ X-100 reagent • II. 0.1M Tris-HCl, pH 9.8, containing 4 mM p-nitrophenyl phosphate (Sigma).
(§4) Frozen T47D cells are thawed in a 37° C. water bath and diluted to 280,000 cells/mL in culture medium. To each well in a 96-well plate (Falcon, Becton Dickinson Labware), 180 μL of diluted cell suspension is added.
Twenty μL of reference or test compounds diluted in the culture medium is then added to each well. When testing for progestin antagonist activity, reference antiprogestins or test compounds are added in the presence of 1 nM progesterone. The cells are incubated at 37° C. in a 5% CO2/humidified atmosphere for 24 hours.
For high throughput screening, one concentration of each compound will be tested at 0.3 μg/mL. Based on an average molecular weight of 300 g/mol for the compounds in the library, the concentration is approximately 1 μM. Subsequently, active compounds will be tested in dose response assays to determine EC50 and IC50.
At the end of treatment, the medium is removed from the plate. Fifty μL of assay buffer I is added to each well. The plates are shaken in a titer plate shaker for 15 minutes. Then 150 μL of assay buffer II is added to each well. Optical density measurements are taken at 5 minute intervals for 30 minutes at a test wavelength of 405 nm.
Analysis of dose-response data. For reference and test compounds, a dose response curve is generated for dose (x-axis) vs. the rate of enzyme reaction (slope) (y-axis). Square root-transformed data are used for analysis of variance and nonlinear dose response curve fitting for both agonist and antagonist modes. Huber weighting is used to down-weight the effects of outliers. EC50 or IC50 values are calculated from the retransformed values. The JMP® software (SAS Institute, Inc.) is used for both one-way analysis of variance and non-linear dose response analysis in both single dose and dose response studies.
Progesterone and trimegestone are reference progestins and RU486 is the reference antiprogestin. All reference compounds are run in full dose response curves and the EC50 and IC50 values are calculated.
In the table provided above, the IC50 values show the relative progesterone receptor antagonist activity in this assay. Lower numbers are indicative of higher potency, i.e., greater PR antagonist activity. Further, the assay has a standard deviation of about ±6.

progesterone receptor [2] = biological target: T1, progesterone receptor; assay: as above; format: cell-based; parameters: Frozen T47D cells are thawed in a 37° C. water bath and diluted to 280,000 cells/mL in culture medium; endogenous in cells; host or cells: T47D cells; conditions: T47D cells, antagonist mode in the presence of 1 nM progesterone, 24 hours
Description: as §1, §2, §3, §4
Twenty μL of reference or test compounds diluted in the culture medium is then added to each well. When testing for progestin antagonist activity, reference antiprogestins or test compounds are added in the presence of 1 nM progesterone. […]
Analysis of dose-response data. […] EC50 or IC50 values are calculated from the retransformed values. […]
Progesterone and trimegestone are reference progestins and RU486 is the reference antiprogestin. All reference compounds are run in full dose response curves and the EC50 and IC50 values are calculated. […]

Row | SMILES | IC50 (progesterone receptor [1]) [nM] | IC50 (progesterone receptor [2]) [nM]
1 | Cn1c(C#N)ccc1-c1ccc(N)cc1 [Example 1, 5-(4-aminophenyl)-1-methyl-1H-pyrrole-2-carbonitrile] | 109 | –
2 | CN(C#N)c1ccc(-c2ccc(C#N)n2C)cc1 [Example 38] | – | 88.2
3 | CC(C)S(=O)(=O)Nc1ccc(-c2ccc(C#N)n2C)c(C(F)(F)F)c1 [Example 56, N-[4-(5-cyano-1-methyl-1H-pyrrol-2-yl)-3-(trifluoromethyl)phenyl]propane-2-sulfonamide] | 25.2 | –
4 | CCCCS(=O)(=O)Nc1cc(F)c(-c2ccc(C#N)n2C)c(F)c1 [Example 82, N-[4-(5-cyano-1-methyl-1H-pyrrol-2-yl)-3,5-difluorophenyl]butane-1-sulfonamide] | 8.6 | –
